From ChEMBL document CHEMBL1133166, “Cyclin-dependent kinase inhibitors: useful targets in cell cycle regulation” (J Med Chem, 2000)
Active and inactive are the calls of the source. The calls are words filed in the database; no cut-off is given here.

Assays:
[1] = molecular target: Cyclin-dependent kinase 1/cyclin B (Homo sapiens) (UniProt P06493+P14635+Q8WWL7+O95067); details: Asteroidea
Description: Inhibition of Cyclin-dependent kinase 1-cyclin B

[2] = molecular target: T1, Cyclin-dependent kinase 4/cyclin D (Homo sapiens) (UniProt P11802+P24385+P30281+P30279); assay: Inhibition of Cyclin-dependent kinase 4-cyclin D; format: protein-complex assay
[3] = molecular target: Cyclin-dependent kinase 2/cyclin A (Homo sapiens) (UniProt P24941+P20248+P78396); assay: Inhibition of Cyclin-dependent kinase 2-cyclin A; format: protein-complex assay
[4] = molecular target: Cyclin-dependent kinase 2/cyclin E (Homo sapiens) (UniProt P24864+P24941+O96020); details: Asteroidea
Description: Inhibition of Cyclin-dependent kinase 2-cyclin E

[5] = molecular target: T1, Cyclin-dependent kinase 4/cyclin D (Homo sapiens); assay: Inhibition of Cyclin-dependent kinase 4-cyclin D (Inactive); format: protein-complex assay; details: Asteroidea

T1 sequence (P11802 whole entry, looked up): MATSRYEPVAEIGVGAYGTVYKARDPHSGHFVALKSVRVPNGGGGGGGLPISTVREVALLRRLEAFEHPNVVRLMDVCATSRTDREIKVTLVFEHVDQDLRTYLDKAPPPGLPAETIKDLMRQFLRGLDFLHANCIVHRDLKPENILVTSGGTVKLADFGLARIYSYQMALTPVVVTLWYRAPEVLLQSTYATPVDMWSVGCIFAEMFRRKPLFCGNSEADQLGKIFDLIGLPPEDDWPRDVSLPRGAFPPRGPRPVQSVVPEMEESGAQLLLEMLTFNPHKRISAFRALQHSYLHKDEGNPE
T1 sequence (P24385 whole entry, looked up): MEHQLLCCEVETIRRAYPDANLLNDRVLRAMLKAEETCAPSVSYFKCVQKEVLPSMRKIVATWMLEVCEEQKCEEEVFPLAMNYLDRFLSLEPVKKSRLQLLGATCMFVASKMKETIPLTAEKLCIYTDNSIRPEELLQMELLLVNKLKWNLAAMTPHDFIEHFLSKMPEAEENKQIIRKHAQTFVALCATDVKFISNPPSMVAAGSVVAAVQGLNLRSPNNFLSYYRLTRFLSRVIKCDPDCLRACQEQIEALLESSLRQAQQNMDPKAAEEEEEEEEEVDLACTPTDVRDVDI
T1 sequence (P30279 whole entry, looked up): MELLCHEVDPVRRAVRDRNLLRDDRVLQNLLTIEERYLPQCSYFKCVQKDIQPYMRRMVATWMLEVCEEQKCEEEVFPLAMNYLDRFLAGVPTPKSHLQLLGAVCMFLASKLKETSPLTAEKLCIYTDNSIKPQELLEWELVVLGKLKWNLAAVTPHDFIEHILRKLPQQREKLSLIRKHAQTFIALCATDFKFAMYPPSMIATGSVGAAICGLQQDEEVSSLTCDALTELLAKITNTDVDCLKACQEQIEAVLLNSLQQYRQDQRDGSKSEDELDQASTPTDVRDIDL
T1 sequence (P30281 whole entry, looked up): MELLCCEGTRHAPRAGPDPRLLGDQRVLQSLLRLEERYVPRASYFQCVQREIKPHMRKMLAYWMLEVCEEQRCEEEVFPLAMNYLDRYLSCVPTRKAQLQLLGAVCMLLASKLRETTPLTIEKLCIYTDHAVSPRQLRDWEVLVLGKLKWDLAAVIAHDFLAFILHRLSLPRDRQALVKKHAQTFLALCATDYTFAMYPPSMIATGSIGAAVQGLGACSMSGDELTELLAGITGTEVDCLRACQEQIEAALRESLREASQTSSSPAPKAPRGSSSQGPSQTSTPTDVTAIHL

| SMILES | ID50 [1] | ID50 [3] | ID50 [4] | other results |
| --- | --- | --- | --- | --- |
| CC(C)n1c(=O)ccc2ncc(Nc3ccc(N4CCN(C)CC4)cc3)cc21 | 675 nM | 58 nM | 270 nM | ID50 [2]: 45 nM |
| Cn1cnc2c(NCc3ccccc3)nc(NCCO)nc21 |  |  |  | IA [5]: inactive |
| CNS(=O)(=O)Cc1ccc(/N=N/c2c(O)[nH]c3ccc4ncccc4c23)cc1 |  |  | 6.2 nM |  |
| CCn1cnc2c(N)nc(N(c3cccc(Cl)c3)[C@@H]3CCCC[C@@H]3N)nc21 | 16 nM |  | 9 nM | ID50 [2]: 29 nM |

Further lines, with some results ahead:

| ID50 [1] | ID50 [3] | ID50 [4] | SMILES | other results |
| --- | --- | --- | --- | --- |
| 35 nM |  |  | O=C1Cc2c([nH]c3ccc(Br)cc23)-c2ccccc2N1 |  |
|  | 6 nM |  | CC(C)[C@H](CO)Nc1nc(Nc2ccc(C(=O)O)c(Cl)c2)c2ncn(C(C)C)c2n1 |  |
|  |  | 3.5 nM | CNS(=O)(=O)c1ccc(/N=N/c2c(O)[nH]c3ccc4ncsc4c23)cc1 |  |
| 20 nM |  | 50 nM | OCCCNc1cc(-c2ccnc(Nc3cccc(Cl)c3)n2)ccn1 |  |
|  | 100 nM |  | CN1CC[C@H](c2c(O)cc(O)c3c(=O)cc(-c4ccccc4Cl)oc23)[C@H](O)C1 |  |
